Reference: article PMC8533176, “1,5-Benzodiazepin-2(3H)-ones: In Vitro Evaluation as Antiparkinsonian Agents” (Antioxidants, 2021)
Where two headings read alike, the source gives them in different places.

How the values were obtained:
[1] = ABTS radical scavenging assay; type: biochemical; conditions: for IC50: 30-min incubation; for ABTS Assay TEAC50: Equivalent antioxidant capacity at Trolox 50 mM; for ABTS Assay TEAC100: Equivalent antioxidant capacity at Trolox 100 mM
Description: The mixture was stored in the dark at room temperature for 16 h. […] All the compounds tested were dissolved in EtOH. […] The degree of decolorization was calculated as the percentage reduction of absorbance. […] Trolox was used as a reference antioxidant.

[2] = Ferric reducing antioxidant power (FRAP) assay; type: biochemical; set-up: FRAP Assay Trolox Equivalents: unit not given here; conditions: for FRAP Assay Antioxidant Capacity (%) at 100 uM: compound at 100 uM; for FRAP Assay Antioxidant Capacity (%) at 200 uM: compound at 200 uM
Description: FRAP reagent was prepared by mixing 10 mL of 300 mM acetate buffer with 1 mL of 10 mM 2,4,6-tripyridyl-S-triazine (TPTZ) in HCl 40 mM and 1mL of FeCl3·6H2O 20 mM. […] Trolox was used as assay control.

[3] = Kinetic solubility by UV spectrometry; type: physicochemical; conditions: PBS 50 mM, aqueous buffer, kinetic from dmso stock
Description: A modified protocol was used from that described by Hoelke et al. for the determination of the kinetic solubility from DMSO compound solutions. A compound calibration curve (compound concentration vs UV absorption) was prepared for each compound with concentrations of 10, 20, 50, 100, and 200 µM. Each compound dilution was carried out by pipetting defined volumes of a 20 mM stock compound solution in DMSO into vials and adding PBS 50 mM to reach a final volume of 1 mL/well. The final amount of DMSO per well was 2%. For the lower compound concentrations, an additional volume of DMSO was added to each well to reach 2% DMSO. Then, 200 µL of each dilution was transferred to a new 96-well culture plate for the measurement of the UV-spectra. One well in each row was left without a compound as a blank, and its UV absorbance was used as an offset correction. The experiments were performed in duplicate.
In parallel, compound saturation solutions were reached and filtered from 20 mM compound stock in DMSO: 10 µL of a 20 mM stock solution was dispensed into 190 µL of PBS 10 mM. The solutions were mixed, shaken on a microplate shaker for two hours, and then 160 µL of each solution was filtered and transferred to a new well plate for UV absorption measurement.
Measurement of the UV-spectra was performed using a Varioskan microplate reader, and spectra were taken in the range of 270–600 nm. Spectral bandwidth was set to 5 nm, and the data pint interval was 10 nm. The experiments were carried out in triplicate.

SH-SY5Y cells [4] = assay: Cytotoxicity, MTT assay, SH-SY5Y; type: cell-based; conditions: Homo sapiens, read-out: SH-SY5Y IC50
Description: (§1) All compounds tested were dissolved and eventually further diluted in dimethylsulfoxide (DMSO). After overnight incubation, the cells were treated with different compound concentrations (5, 10, 20, 50, 100, 150, 200 µM) in a final volume of 200 µL with four replicates each. […] Cell proliferation or viability was measured using the 3-(4,5-dimethylthiazol-2-yl)-2,5-diphenyl tetrazolium bromide (MTT) assay. The MTT assay was optimized taking into account the number of cells plated per well, to work in the linear part of the cell density vs. MTT absorbance calibration curve, which allows achieving a maximum absorbance in the range of 0.8–1.0 in each well at the end of the experiment. In addition to that, the number of cells seeded for each experiment was optimized in agreement with the time scale of the experiment.
(§2) After cell treatment, 20 µL of MTT (5 mg/mL) was added to each well, and the plate was incubated at 37 °C in the dark for 2 h. Supernatants were removed, and the formazan crystals were solubilized in DMSO (200 µL/well), under 10 min shaking at room temperature. The reduction of MTT was quantified by absorbance at 570 nm in a Varioskan microplate reader (Thermo Fisher Scientific, Vantaa, Finland). Effects of the test compounds on cell viability were calculated using cells treated with a vehicle as a control. For IC50 and LD50 calculations, the data were subjected to linear regression analysis, and the regression lines were plotted for the best fit. The IC50 (inhibition of cell viability) concentrations were calculated using the respective dose–response curves.

HepG2 cells = assay: Cytotoxicity, MTT assay, HepG2; type: cell-based; conditions: Homo sapiens
Description: as §1, §2

SH-SY5Y cells [5] = assay: LDH release under H2O2; type: cell-based, human; conditions: H2O2 250 µM 24 h; compounds 24 h before; Figure 9
[6] = Chemical reactivity with H2O2; type: physicochemical; conditions: H2O2 500 µM, 37 °C, 4 h, DMEM:F12 without cells
Description: In our case, before running the protection experiments under oxidative stress conditions, we carried out experiments to assess the potential reactivity of compounds 9, 11, 13, and 18 at four different concentrations (5, 10, 20, and 40 µM) with H2O2 500 µM at 37 °C for 4 h in DMEM:F12 (without phenol red, FBS, and cells). Curcumin was used as a control compound.

SH-SY5Y cells [7] = assay: cells; type: cell-based, human; conditions: MTT
SH-SY5Y cells [8] = assay: Neuroprotection against H2O2-induced oxidative stress, MTT; conditions: H2O2 250 µM 24 h; compounds 5-50 µM 24 h before; Figure 8
[9] = HepG2, MTT, cytotoxicity, read-out: HepG2 IC50

Row | Compound | IC50 [1] [µM] | ABTS Assay TEAC50 [1] | ABTS Assay TEAC100 [1] | FRAP Assay Trolox Equivalents [2] | FRAP Assay Antioxidant Capacity (%) at 100 uM [2] [%] | FRAP Assay Antioxidant Capacity (%) at 200 uM [2] [%] | solubility [3] [µM] | IC50 (SH-SY5Y cells [4]; MTT, cytotoxicity) [µM] | IC50 (HepG2 cells; [9]) [µM] | LDH leakage (SH-SY5Y cells [5]) | Reaction with H2O2 [6] | EC50 (SH-SY5Y cells [7]; MPP+ 48 h, read-out: concentration that resulted in 50% cell viability) [µM] | EC50 (SH-SY5Y cells [7]; Homo sapiens, SH-SY5Y, 6-OHD 48 h, read-out: concentration at which the cell viability was reduced by 50%) [µM] | IC50 (SH-SY5Y cells [4]) [µM] | IC50 (HepG2 cells; HepG2, read-out: HepG2 IC50) [µM] | melting point [°C] | Neuroprotection effect, cell viability (MTT) (SH-SY5Y cells [8])
1 | O=C1CC(c2ccccc2)=Nc2cc(F)c(F)cc2N1 [Compound 9, 7,8-Difluoro-4-phenyl-1H-1,5-benzodiazepin-2(3H)-one] | 432 ± 68 | 0.36 | 0.18 | 0.43 | 21.9 | 37.1 | < 50 | > 250 | > 250 | reduced LDH leakage to some degree | did not show any significant reaction | – | – | – | – | – | –
2 | C[n+]1ccc(-c2ccccc2)cc1 [MPP^+, 1-Methyl-4-phenylpyridinium] | – | – | – | – | – | – | – | – | – | – | – | 700 | – | – | – | – | –
3 | NCCc1cc(O)c(O)cc1O [Compound 6-OHD, 6-hydroxydopamine] | – | – | – | – | – | – | – | – | – | – | – | – | 250 | – | – | – | –
4 | CN1C(=O)CC(c2ccccc2Cl)=Nc2c(F)c(F)c(F)c(F)c21 [Compound 8, 6,7,8,9-tetrafluoro-4-(2-chlorophenyl)-1-methyl-1H-1,5-benzodiazepin-2(3H)-one] | > 1000 | – | – | 0.01 | 0.6 | 0.2 | < 100 | – | – | – | – | – | – | 150 ± 17 | 207 ± 27 | 128.7 | –
5 | COc1cc(C2=Nc3cc(C)c(C)cc3NC(=O)C2)cc(OC)c1OC [Compound 21, 7,8-Dimethyl-4-(3,4,5-trimethoxyphenyl)-1H-1,5-benzodiazepin-2(3H)-one] | 137 ± 5.3 | 0.36 | 0.21 | 0.89 | 47.2 | 60.9 | < 100 | > 250 | > 250 | – | – | – | – | – | – | 208.5 | –
6 | O=C1CC(c2ccccc2)=Nc2ccc(F)cc2N1 [Compound 11, 8-Fluoro-4-phenyl-1H-1,5-benzodiazepin-2(3H)-one] | 306 ± 34.6 | 0.35 | 0.17 | 0.56 | 28.9 | 49.8 | < 20 | > 250 | > 250 | – | did not show any significant reaction | – | – | – | – | – | high variable neuroprotection results at concentrations higher than 10 µM
7 | CN1C(=O)CC(c2ccccc2)=Nc2cc(F)c(F)cc21 [Compound 10, 7,8-Difluoro-1-methyl-4-phenyl-1H-1,5-benzodiazepin-2(3H)-one] | > 1000 | – | – | 0.01 | 0.3 | 0.6 | > 200 | 193 ± 15.9 | > 250 | – | – | – | – | – | – | 115.8 | –
8 | O=C1CC(c2ccccc2)=Nc2cc(F)ccc2N1 [Compound 13, 7-Fluoro-4-phenyl-H-1,5-benzodiazepin-2(3H)-one] | 325 ± 55 | 0.36 | 0.19 | 0.79 | 40.7 | 61.6 | < 20 | > 250 | > 250 | – | did not show any significant reaction | – | – | – | – | 205.7 | –
9 | O=C1CC(c2ccccc2F)=Nc2c(F)c(F)c(F)c(F)c2N1 [Compound 5, 6,7,8,9-tetrafluoro-4-(2-fluorophenyl)-1H-1,5-benzodiazepin-2(3H)-one] | 658 ± 96 | 0.32 | 0.15 | 0.03 | 1.4 | 5.5 | < 20 | > 250 | > 250 | – | – | – | – | – | – | 248.1 | –
10 | CN1C(=O)CC(c2ccccc2F)=Nc2c(F)c(F)c(F)c(F)c21 [Compound 6, 6,7,8,9-tetrafluoro-4-(2-fluorophenyl)-1-methyl-1H-1,5-benzodiazepin-2(3H)-one] | > 1000 | – | – | 0.02 | 1.1 | 1.6 | < 200 | – | – | – | – | – | – | > 250 | > 250 | 142.6 | –
11 | O=C1CC(c2ccccc2Cl)=Nc2c(F)c(F)c(F)c(F)c2N1 [Compound 7, 6,7,8,9-tetrafluoro-4-(2-chlorophenyl)-1H-1,5-benzodiazepin-2(3H)-one] | 635 ± 87 | 0.35 | 0.16 | 0.01 | 0.6 | 0.4 | < 50 | 135 ± 11.2 | 201 ± 13.1 | – | – | – | – | – | – | 211.7 | –
12 | CC1=Nc2c(F)c(F)c(F)c(F)c2N(C)C(=O)C1 [Compound 2, 6,7,8,9-tetrafluoro-1,4-dimethyl-1H-1,5-benzodiazepin-2(3H)-one] | > 1000 | – | – | 0.02 | 1.00 | 0.5 | > 200 | > 250 | > 250 | – | – | – | – | – | – | 132.2 | –
13 | O=C1CC(c2ccccc2)=Nc2c(F)c(F)c(F)c(F)c2N1 [Compound 3, 6,7,8,9-tetrafluoro-4-phenyl-1H-1,5-benzodiazepin-2(3H)-one] | > 1000 | – | – | 0.03 | 1.5 | 1.8 | < 100 | > 250 | > 250 | – | – | – | – | – | – | 253.3 | –
14 | COc1cc(C2=Nc3cc(F)c(F)cc3NC(=O)C2)cc(OC)c1OC [Compound 22, 7,8-Difluoro-4-(3,4,5-trimethoxyphenyl)-1H-1,5-benzodiazepin-2(3H)-one] | > 500 | – | – | 0.30 | 15.7 | 13.7 | < 100 | > 250 | > 250 | – | – | – | – | – | – | 241.8 | –
15 | O=C1CC(c2ccccc2)=Nc2c(F)cc(F)cc2N1 [Compound 17, 6,8-Difluoro-4-phenyl-1H-1,5-benzodiazepin-2(3H)-one] | > 1000 | – | – | 0.04 | 1.8 | 2.5 | < 50 | > 250 | > 250 | – | – | – | – | – | – | 221.5 | –
